Entries after “also recorded” stand apart in the source; their conditions may differ.
Assays:
[1] = test system: 5XFAD primary cortical neurons; test: Respiration measurements in 5XFAD cortical neurons; type: cell-based, mouse; conditions: 10 μM and 50 μM, 48 hours
Procedure: Respiration Measurements (5XFAD cortical neurons). Primary cortical neurons were plated on poly-D-lysine-coated Seahorse XF24 cell culture microplates at a density of 3×10^4 cells/well and cultured for 14 days. At DIV (day in vitro) 12, neurons were treated with indicated compound for 48 hours. On day of the experiment, cells were washed three times and pre-incubated for 1 h in Assay Media with 10 mM Glucose, 1 mM Pyruvate, and 2 mM L-Glutamine. Measurement of intact cellular respiration was performed using an analyzer and a commercial Mito Stress Test Kit. Respiration was measured under basal conditions, and in response to 1.5 μM oligomycin followed by the addition of the […] (FCCP, 1 μM) which induces maximal OCR (Oxygen Consumption Rate). Finally, respiration was stopped by adding the electron transport chain inhibitors rotenone and antimycin A (0.5 μM). Values were normalized to cellular protein levels.
To obtain proof-of-concept protective effect of 14b in an ex vivo mouse model of AD we isolated primary mouse cortical neurons from the 5XFAD Alzheimer's model mouse (FIGS. 6A-6C). 5XFAD neurons were cultured for 10 days and then treated with 14b at 10 or 50 μM for 48 hours and then stained with the mitochondrial outer membrane protein TOM20 to evaluate mitochondrial morphological changes (FIG. 6A). […]

SH-SY5Y cells [2] = test: Aβ-induced toxicity in SH-SY5Y cells, lactate dehydrogenase (LDH) release assay; type: cell-based, human; conditions: 1 μM, pretreated 24 hrs, then 25 μM Aβ 48 hrs
Procedure: Cell Culture. The cell line SH-SY5Y was cultured in DMEM/F12 media supplemented with 10% fetal bovine serum, 1% penicillin-streptomycin and maintained as monolayer cultures in a humidified atmosphere containing 5% CO2 at 37° C.^42 All cell lines were authenticated via short tandem repeat analysis and tested for mycoplasma using the a commercial mycoplasma detection kit as per the manufacturer's instructions, showing no contamination. Where indicated, cells were also cultured in DMEM/low glucose media. All compounds were diluted to 20 mM solution in DMSO and were serially diluted in cell culture media for cell treatments to a final concentration range of 0.01 to 100 μM, maintaining the final DMSO concentration at less than 1%. Positive control compound HupA was serially diluted in a similar fashion as the synthesized compounds.
Amyloid Preparation. The peptide Aβ1-42, referred to as “Aβ”, was obtained from a commercial source. The oligomers of Aβ were prepared using an established method,^43 Aβ peptide was resuspended in 0.5 mM NaOH at a concentration of […] and stored at −80° C. For use in cell cultures, the stock solution was incubated at 37° C. for 5-7 days. Before use, the peptide was diluted to 25 μM in DMEM/low glucose media.
Cell Viability Assays. […] Cell viability was measured after 48 hours using commercial MTS assay or lactate dehydrogenase (LDH) cytotoxicity assay. […]

SH-SY5Y cells [3] = test: Mitochondrial Stress Test in Aβ-treated SH-SY5Y cells (extracellular flux analyzer); type: cell-based, human
Procedure: Mitochondrial Stress Test. […] After 48 hours, media was replaced with assay medium consisting of XF Base Medium supplemented with 10 mM glucose, 10 mM pyruvic acid, and 1 mM L-glutamine. Subsequently, the analysis of mitochondrial oxygen consumption rate (OCR) was performed in a flux analyzer. The OCR values were obtained both during baseline (prior to addition of any Mito Stress Test substances), and after the addition of […], 2 μM FCCP and 0.5 μM rotenone+0.5 μM antimycin A, respectively. Prior to analysis, data were corrected by withdrawing non-mitochondrial respiration (measured after the injection of rotenone and antimycin A) from all measured OCR values. After the experiment, cells were lysed using RIPA buffer and protease inhibitor cocktail, then proteins were quantified via BCA assay. Results were normalized to protein concentration of each well to its OCR value.

## O=C(C(c1ccccc1)n1cnc2[nH]ncc2c1=S)N1CCC(O)CC1 (centres unmarked) [Compound 14b, 1-(4-hydroxypiperidin-1-yl)-2-phenyl-2-(4-thioxo-1,4-dihydro-5H-pyrazolo[3,4-d]pyrimidin-5-yl)ethan-1-one]
[1]
  mitochondrial respiration (oxygen consumption rate) rescue: trend to rescue
SH-SY5Y cells [2]
  LDH release compared with Aβ treatment alone: significantly reducing LDH release; also recorded: significantly rescued
SH-SY5Y cells [3]; 1 μM pretreatment 24 hrs, then 25 μM Aβ 48 hrs
  basal respiration: restored share of the cell respiration reduced by Aβ: 46%
SH-SY5Y cells [3]; 1 μM pretreatment, then 25 μM Aβ
  proton leak, ATP production and maximal respiration: restoration of mitochondrial function lost by Aβ: trend to restore; also recorded: trend to rescue
SH-SY5Y cells [3]; SH-SY5Y cells
  basal respiration, rescue of Aβ-mediated dysfunction: significantly rescuing
